Where two headings read alike, the source gives them in different places.
How the values were obtained:
Type in all cases: in vivo
[1] = test system: galium (catchweed bedstraw, Galium aparine); assay: Test B postemergence plant response
Method in brief: (§1)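 Visual injury rating, 0–100 (0 = no effect, 100 = complete control), vs untreated controls ~10 days after postemergence spray; greenhouse; potted loam soil/sand; plants 2–10 cm, 1–2 leaf stage.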

[2] = test system: blackgrass (Alopecurus myosuroides); assay: Test B postemergence plant response
Method in brief: as §1

[3] = test system: giant foxtail (Setaria faberii); assay: Test B pre-/postemergence plant response; details: for Foxtail, Giant plant response rating / pest or weed control at 125 g/ha: 125 g ai/ha; for pest or weed control at 125 g/ha / pest or weed control at 31 g/ha: Setaria faberi, 240 h, read-out: Plant response rating, Foxtail, Giant; for pest or weed control at 125 g/ha: postemergence, 0 to 100 scale, 0 no effect, 100 complete control; for pest or weed control at 31 g/ha: 31 g ai/ha
Method in brief: (§2)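 Steps: plant seeds in loam soil–sand mix; spray soil preemergence, and in parallel spray 2–10 cm one- to two-leaf plants postemergence; hold ~10 days in greenhouse; visually rate injury against untreated controls (0 = no effect, 100 = complete control).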

[4] = test system: Italian ryegrass (Lolium multiflorum); assay: Test B pre-/postemergence plant response
Method in brief: as §2

[5] = test system: wheat (Triticum aestivum); assay: Test B pre-/postemergence plant response; details: Triticum aestivum, post-emergence, 240 h, read-out: Plant response rating, Wheat; for plant injury at 125 g/ha: 125 g ai/ha, postemergence, 0 to 100 scale, 0 no effect, 100 complete control; for plant injury at 31 g/ha: Postemergence, 31 g ai/ha, 0 to 100 scale (0 no effect, 100 complete control)
Method in brief: as §2

kochia (Kochia scoparia) [6] = assay: Test B pre-/postemergence plant response
Method in brief: as §2

corn (Zea mays) = assay: Test B pre-/postemergence plant response; details: Zea mays, post-emergence, 240 h; for Corn plant response rating (crop injury, 0 = no effect, 100 = complete kill) at 125 g/ha: 125 g ai/ha, postemergence, 0 to 100 scale, 100 complete control; for Corn plant response rating (crop injury, 0 = no effect, 100 = complete kill) at 31 g/ha: Postemergence, 31 g ai/ha, 0 to 100 scale (0 no effect, 100 complete control)
Method in brief: as §2

[7] = test system: ragweed (common ragweed, Ambrosia elatior); assay: Test B pre-/postemergence plant response
Method in brief: as §2

[8] = test system: pigweed (Amaranthus retroflexus); assay: Test B pre-/postemergence plant response; details: for pest or weed control at 125 g/ha / pest or weed control at 31 g/ha: Amaranthus retroflexus, 240 h, read-out: Plant response rating, Pigweed; for pest or weed control at 125 g/ha / Pigweed plant response rating: 125 g ai/ha; for pest or weed control at 125 g/ha: postemergence, 0 to 100 scale, 0 no effect, 100 complete control; for pest or weed control at 31 g/ha: 31 g ai/ha
Method in brief: as §2

[9] = test system: barnyardgrass (Echinochloa crus-galli); assay: Test B pre-/postemergence plant response; details: for pest or weed control at 125 g/ha / pest or weed control at 31 g/ha: Echinochloa crus-galli, 240 h, read-out: Plant response rating, Barnyardgrass; for pest or weed control at 125 g/ha / Barnyardgrass plant response rating: 125 g ai/ha; for pest or weed control at 125 g/ha: postemergence, 0 to 100 scale, 0 no effect, 100 complete control; for pest or weed control at 31 g/ha: 31 g ai/ha
Method in brief: as §2

[10] = test system: chickweed (common chickweed, Stellaria media); assay: Test D postemergence plant response; details: Stellaria media, post-emergence; for pest or weed control at 16 g/ha: 16 g ai/ha; for pest or weed control at 16 g/ha / pest or weed control at 31 g/ha: scale 0 to 100 (0 no effect, 100 complete control), read-out: Chickweed plant response rating; for pest or weed control at 31 g/ha: 31 g ai/ha; for pest or weed control at 62 g/ha: 62 g ai/ha; for pest or weed control at 62 g/ha / pest or weed control at 125 g/ha: scale 0 to 100, 0 no effect, 100 complete control, read-out: Plant response rating, Chickweed; for pest or weed control at 125 g/ha: 125 g ai/ha
Method in brief: (§3)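 Visual scoring from 0 (no effect) to 100 (complete control), relative to controls, 13–15 days after treatment in the greenhouse. Compounds were applied postemergence at the 1- to 4-leaf stage (2–18 cm) to potted plants in peat-based medium.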

kochia (Kochia scoparia) [11] = assay: Test D postemergence plant response; details: Bassia scoparia, post-emergence; for pest or weed control at 31 g/ha: 31 g ai/ha, scale 0 to 100 (0 no effect, 100 complete control), read-out: Kochia plant response rating; for pest or weed control at 62 g/ha: 62 g ai/ha; for pest or weed control at 62 g/ha / pest or weed control at 125 g/ha: scale 0 to 100, 0 no effect, 100 complete control, read-out: Plant response rating, Kochia; for pest or weed control at 125 g/ha: 125 g ai/ha
Method in brief: as §3

wild oat (Avena fatua) = assay: Test D postemergence plant response; details: Avena fatua, post-emergence; for pest or weed control at 31 g/ha: 31 g ai/ha, scale 0 to 100 (0 no effect, 100 complete control), read-out: Oat, Wild plant response rating; for pest or weed control at 62 g/ha: 62 g ai/ha; for pest or weed control at 62 g/ha / pest or weed control at 125 g/ha: scale 0 to 100, 0 no effect, 100 complete control, read-out: Plant response rating, Oat, Wild; for pest or weed control at 125 g/ha: 125 g ai/ha
Method in brief: as §3

[12] = test system: small-flower umbrella sedge (Cyperus difformis); assay: Test C flooded paddy test plant response; details: Cyperus difformis; Flood, 250 g ai/ha; scale of 0 to 100 where 0 is no effect and 100 is complete control; 13 to 15 days; read-out: Sedge, Umbrella plant response rating
Method in brief: (§4)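 Plants grown to the 2-leaf stage; pots flooded to 3 cm above soil, test compounds applied directly to paddy water, depth maintained throughout. Greenhouse for 13 to 15 days, then visual rating versus controls on a 0–100 scale (0 no effect, 100 complete control).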

rice (Oryza sativa) = assay: Test C flooded paddy test plant response; details: Oryza sativa; Flood, 250 g ai/ha; scale of 0 to 100 where 0 is no effect and 100 is complete control; 13 to 15 days; read-out: Rice plant response rating
Method in brief: as §4

[13] = test system: ducksalad (Heteranthera limosa); assay: Test C flooded paddy test plant response; details: Heteranthera limosa; Flood, 250 g ai/ha; scale of 0 to 100 where 0 is no effect and 100 is complete control; 13 to 15 days; read-out: Ducksalad plant response rating
Method in brief: as §4

[14] = test system: barnyardgrass (Echinochloa crus-galli); assay: Test C flooded paddy test plant response; details: Echinochloa crus-galli; Flood, 250 g ai/ha; scale of 0 to 100 where 0 is no effect and 100 is complete control; 13 to 15 days; read-out: Barnyardgrass plant response rating
Method in brief: as §4

[15] = 125 g ai/ha, postemergence, 0 to 100 scale, 0 no effect, 100 complete control
[16] = Postemergence, 31 g ai/ha, 0 to 100 scale (0 no effect, 100 complete control)
[17] = Preemergence, 0 to 100 scale (0 no effect, 100 complete control)
[18] = post-emergence, Postemergence, 0 to 100 scale (0 no effect, 100 complete control)
[19] = pre-emergence, Preemergence, 0 to 100 scale where 0 is no effect and 100 is complete control
[20] = 31 g ai/ha, Preemergence, 0 to 100 scale where 0 is no effect and 100 is complete control
[21] = Preemergence, 125 g ai/ha, 0 to 100 scale (0 no effect, 100 complete control)

Fc1cccc(Oc2ncc(Cl)cn2)c1-c1cc(C(F)F)no1 [Compound 144, 5-chloro-2-[2-[3-(difluoromethyl)-5-isoxazolyl]-3-fluorophenoxy]pyrimidine]
Plant response rating, Galium [1, 15]: 100
Plant response rating, Galium [1, 16]: 100
Plant response rating, Blackgrass [2, 15]: 90
Plant response rating, Blackgrass [2, 16]: 80
Foxtail, Giant plant response rating [3, 17]: 100
pest or weed control at 125 g/ha ([3]; post-emergence): 100%
pest or weed control at 31 g/ha [3, 18]: 80%
pest or weed control at 31 g/ha [3, 19]: 100%
Plant response rating, Ryegrass, Italian [4, 20]: 0
Plant response rating, Ryegrass, Italian [4, 15]: 100
Plant response rating, Ryegrass, Italian [4, 16]: 20
Ryegrass, Italian plant response rating [4, 21]: 90
plant injury at 125 g/ha [5]: 90%
plant injury at 31 g/ha [5]: 30%
Plant response rating, Kochia (kochia (Kochia scoparia) [6]; [20]): 90
Plant response rating, Kochia (kochia (Kochia scoparia) [6]; [15]): 100
Plant response rating, Kochia (kochia (Kochia scoparia) [6]; [16]): 100
Kochia plant response rating (kochia (Kochia scoparia) [6]; [21]): 100
Corn plant response rating (crop injury, 0 = no effect, 100 = complete kill) at 125 g/ha (corn (Zea mays)): 90%
Corn plant response rating (crop injury, 0 = no effect, 100 = complete kill) at 31 g/ha (corn (Zea mays)): 30%
Plant response rating, Ragweed [7, 20]: 0
Plant response rating, Ragweed [7, 15]: 60
Plant response rating, Ragweed [7, 16]: 20
Ragweed plant response rating [7, 21]: 50
pest or weed control at 125 g/ha ([8]; post-emergence): 100%
pest or weed control at 31 g/ha [8, 18]: 100%
pest or weed control at 31 g/ha [8, 19]: 100%
Pigweed plant response rating [8, 17]: 100
pest or weed control at 125 g/ha ([9]; post-emergence): 100%
pest or weed control at 31 g/ha [9, 18]: 30%
pest or weed control at 31 g/ha [9, 19]: 80%
Barnyardgrass plant response rating [9, 17]: 100
pest or weed control at 16 g/ha [10]: 70%
pest or weed control at 31 g/ha [10]: 80%
pest or weed control at 62 g/ha [10]: 95%
pest or weed control at 125 g/ha [10]: 95%
pest or weed control at 31 g/ha (kochia (Kochia scoparia) [11]): 100%
pest or weed control at 62 g/ha (kochia (Kochia scoparia) [11]): 100%
pest or weed control at 125 g/ha (kochia (Kochia scoparia) [11]): 100%
pest or weed control at 31 g/ha (wild oat (Avena fatua)): 0%
pest or weed control at 62 g/ha (wild oat (Avena fatua)): 5%
pest or weed control at 125 g/ha (wild oat (Avena fatua)): 10%
pest or weed control at 250 g/ha [12]: 85%
plant injury at 250 g/ha (rice (Oryza sativa)): 40%
pest or weed control at 250 g/ha [13]: 90%
pest or weed control at 250 g/ha [14]: 98%

Fc1cccc(Oc2ncc(Br)cn2)c1-c1cc(C(F)F)no1 [Compound 145, 5-bromo-2-[2-[3-(difluoromethyl)-5-isoxazolyl]-3-fluorophenoxy]pyrimidine]
Plant response rating, Galium [1, 15]: 100
Plant response rating, Galium [1, 16]: 100
Plant response rating, Blackgrass [2, 15]: 90
Plant response rating, Blackgrass [2, 16]: 70
Foxtail, Giant plant response rating [3, 17]: 100
pest or weed control at 125 g/ha ([3]; post-emergence): 90%
pest or weed control at 31 g/ha [3, 18]: 70%
pest or weed control at 31 g/ha [3, 19]: 90%
Plant response rating, Ryegrass, Italian [4, 20]: 0
Plant response rating, Ryegrass, Italian [4, 15]: 80
Plant response rating, Ryegrass, Italian [4, 16]: 20
Ryegrass, Italian plant response rating [4, 21]: 40
plant injury at 125 g/ha [5]: 70%
plant injury at 31 g/ha [5]: 20%
Plant response rating, Kochia (kochia (Kochia scoparia) [6]; [20]): 90
Plant response rating, Kochia (kochia (Kochia scoparia) [6]; [15]): 100
Plant response rating, Kochia (kochia (Kochia scoparia) [6]; [16]): 100
Kochia plant response rating (kochia (Kochia scoparia) [6]; [21]): 100
Corn plant response rating (crop injury, 0 = no effect, 100 = complete kill) at 125 g/ha (corn (Zea mays)): 70%
Corn plant response rating (crop injury, 0 = no effect, 100 = complete kill) at 31 g/ha (corn (Zea mays)): 30%
Plant response rating, Ragweed [7, 20]: 0
Plant response rating, Ragweed [7, 15]: 50
Plant response rating, Ragweed [7, 16]: 20
Ragweed plant response rating [7, 21]: 20
pest or weed control at 125 g/ha ([8]; post-emergence): 100%
pest or weed control at 31 g/ha [8, 18]: 100%
pest or weed control at 31 g/ha [8, 19]: 100%
Pigweed plant response rating [8, 17]: 100
pest or weed control at 125 g/ha ([9]; post-emergence): 100%
pest or weed control at 31 g/ha [9, 18]: 40%
pest or weed control at 31 g/ha [9, 19]: 70%
Barnyardgrass plant response rating [9, 17]: 100
pest or weed control at 16 g/ha [10]: 70%
pest or weed control at 31 g/ha [10]: 80%
pest or weed control at 62 g/ha [10]: 95%
pest or weed control at 125 g/ha [10]: 100%
pest or weed control at 31 g/ha (kochia (Kochia scoparia) [11]): 100%
pest or weed control at 62 g/ha (kochia (Kochia scoparia) [11]): 100%
pest or weed control at 125 g/ha (kochia (Kochia scoparia) [11]): 100%
pest or weed control at 31 g/ha (wild oat (Avena fatua)): 10%
pest or weed control at 62 g/ha (wild oat (Avena fatua)): 15%
pest or weed control at 125 g/ha (wild oat (Avena fatua)): 15%
pest or weed control at 250 g/ha [12]: 95%
plant injury at 250 g/ha (rice (Oryza sativa)): 35%
pest or weed control at 250 g/ha [13]: 90%
pest or weed control at 250 g/ha [14]: 45%
